# Data: US11717536B2, “Treatment for periodontitis” (THE UNIVERSITY OF MELBOURNE, priority 2017, dated 2023)
# Where “and” joins values, the source holds several entries; their conditions need not be identical. Equal values may be shown once. Marks after values point to notes of the source that are not given here.
# Legend:
# [1] = tested on: Streptococcus mutans Ingbritt; experiment: Six species polymicrobial biofilm in constant-depth film fermenter, species composition: S. mutans; format: cell-based; settings: 19 days; mean ± standard deviation; n = 5-21
# Method: (§1) To model supragingival plaque six representative oral bacterial species, Streptococcus sanguinis (NCTC 7863), Streptococcus mutans Ingbritt, Actinomyces naeslundii (NCTC 10301), Veillonella parvula (ATCC 17745), Lactobacillus casei (NCDO 161) and Fusobacterium nucleatum (ATCC 10953) (Table 5) were cultured as a polymicrobial biofilm on a human enamel substratum in a constant-depth film fermenter (CDFF; Cardiff University, UK). The CDFF was housed in a 37° C. incubator under anaerobic conditions which were maintained by a constant flow of 5% CO2 in N2 at 1 L/h. The CDFF contained 15 removable polytetrafluoroethylene (PTFE) pans on a circular platform that was rotated at a constant speed of three rpm. The biofilms were grown on three enamel blocks (see below) in each PTFE pan using an artificial saliva medium (ASM, 2.5 g/L mucin type II (porcine, gastric, Sigma), 2.0 g/L bacteriological peptone (Oxoid), 2.0 g/L tryptone (Oxoid), 1.0 g/L yeast extract (Oxoid), 0.35 g/L NaCl, 0.2 g/L KCl, 0.2 mg/L vitamin K, 1 mg/L haemin and 0.1 g/L cysteine hydrochloride) at a constant flow rate of 30 mL/h. Prior to inoculation, the CDFF pan surfaces were conditioned for 24 h with ASM at a flow rate of 10 mL/h (McBain et al (2003) J Appl Microbiol. 94(4):655-66). In order to mimic in vivo bacterial growth conditions in the oral cavity with dietary sugar intake and to provide a high cariogenic challenge, a 1% (w/v) sucrose solution in ASM was pumped into the CDFF four times a day at four hourly intervals with a flow rate of 30 mL/h for 10 min.
# (§2) Three treatments were applied to the polymicrobial biofilms: 290 ppm fluoride with 220 ppm fluoride as SnF2 and 70 ppm fluoride as NaF (referred to as SnF2), 2% CPP-ACP and 2% CPP-ACP-SnF2. […]
# (§3) For each timepoint, DNA was extracted separately from 8-9 enamel blocks using PowerLyzer® PowerSoil® DNA Isolation Kits (MoBio Laboratories) following the manufacturers “Vacuum Protocol” with a Precellys® bead homogeniser (Bertin Technologies). Samples were quantified using a Qubit™ dsDNA HS assay kit (Life Technologies) before being stored at −80° C. […]
# [2] = tested on: Veillonella parvula (ATCC 17745); experiment: Six species polymicrobial biofilm in constant-depth film fermenter, species composition: V. parvula; format: cell-based; settings: 19 days; mean ± standard deviation; n = 5-21
# Method: as §1, §2, §3
# [3] = tested on: Lactobacillus casei (NCDO 161); experiment: Six species polymicrobial biofilm in constant-depth film fermenter, species composition: L. casei; format: cell-based; settings: 19 days; mean ± standard deviation; n = 5-21
# Method: as §1
# (§4) Three treatments were applied to the polymicrobial biofilms: 290 ppm fluoride with 220 ppm fluoride as SnF2 and 70 ppm fluoride as NaF (referred to as SnF2), 2% CPP-ACP and 2% CPP-ACP-SnF2. These treatments were compared with the control in which the test solution was replaced with ASM. Each treatment was applied using two 10 min pulses of the test solution in ASM with a flow rate of 30 mL/h. The first pulse started 30 min prior to the first sucrose pulse of the morning and the second started 3 h 30 min after the final sucrose pulse of the day.
# (§5) On day 6, 12 and 19 after inoculation four pans were removed aseptically from the CDFF and replaced with blank sterile pans. Enamel blocks from the pans were removed for bacterial enumeration and transverse microradiography.
# (§6) Planktonic and loosely attached bacterial cells were firstly removed from the enamel blocks by light washing with 100 μL ASM. […]
# as §3
# polymicrobial biofilm = experiment: Biofilm ion analyses (calcium, phosphorous, tin; ICP-MS)
# Method: To model supragingival plaque six representative oral bacterial species, Streptococcus sanguinis (NCTC 7863), Streptococcus mutans Ingbritt, Actinomyces naeslundii (NCTC 10301), Veillonella parvula (ATCC 17745), Lactobacillus casei (NCDO 161) and Fusobacterium nucleatum (ATCC 10953) (Table 5) were cultured as a polymicrobial biofilm on a human enamel substratum in a constant-depth film fermenter (CDFF; Cardiff University, UK). […] The CDFF contained 15 removable polytetrafluoroethylene (PTFE) pans on a circular platform that was rotated at a constant speed of three rpm. […] These treatments were compared with the control in which the test solution was replaced with ASM. […] The first pulse started 30 min prior to the first sucrose pulse of the morning and the second started 3 h 30 min after the final sucrose pulse of the day. Calcium, phosphorous and tin content of polymicrobial biofilm samples were determined by inductively-coupled mass spectrometry essentially as described previously [[…] et al 2005].
# [4] = tested on: Fusobacterium nucleatum (ATCC 10953); experiment: Six species polymicrobial biofilm in constant-depth film fermenter, species composition: F. nucleatum; format: cell-based
# Method: as §1, §4, §5
# Planktonic and loosely attached bacterial cells were firstly removed from the enamel blocks by light washing with 100 μL ASM. To harvest the biofilm cells on each block, the surface was scraped with a sterile scraper with 1 mL of ASM. The biofilm bacterial cells were sedimented by centrifugation (10,000 g, 10 min), the supernatant carefully decanted and the cell pellets stored at −80° C. until required for DNA extraction. The enamel blocks were then used for sectioning and microradiography.
# For each timepoint, DNA was extracted separately from 8-9 enamel blocks using PowerLyzer® PowerSoil® DNA Isolation Kits (MoBio Laboratories) following the manufacturers “Vacuum Protocol” with a Precellys® bead homogeniser (Bertin Technologies). Samples were quantified using a Qubit™ dsDNA HS assay kit (Life Technologies) before being stored at −80° C.
# The Ion Amplicon Library Preparation Fusion Method (Thermo Fisher Scientific), was adapted for amplification of the V4 region of the 16S rRNA gene. […]
# [5] = tested on: Actinomyces naeslundii (NCTC 10301); experiment: Six species polymicrobial biofilm in constant-depth film fermenter, species composition: A. naeslundii; format: cell-based
# Method: as §1, §2, §3
# [6] = tested on: enamel substratum of the polymicrobial biofilm caries model; experiment: Enamel subsurface demineralization in the polymicrobial biofilm caries model (transverse microradiography); design: species or system human; settings: for integrated mineral loss ΔZd / lesion depth LD: twice daily 10 min pulses, mean ± SD
# Method: as §1, §4, §5
# Three hundred and sixty extracted human third molars were obtained under University of Melbourne ethics approval (HREC #1237616) and sterilized by exposure to 4.1 kGy of gamma radiation. Enamel blocks were cut from the teeth with approximately 6×3×3 mm dimensions using a water-cooled diamond blade saw (Minitom, Struers) and polished using a RotoPol/RotoForce lapping instrument with 1200, 2400, 4000 grit lapping papers (Struers) and 3 and 1 μm diamond polishing pastes (Struers). The blocks were positioned in custom made CDFF pans at a depth of 100 μm and sealed in place with yellow sticky wax (Kemdent) and sterilized by exposure to 4.1 kGy of gamma radiation.
# Transverse microradiography was carried out essentially as described previously [Shen et al 2011]. […] The lesion depth (μm) was determined as the distance to the point at which the mineral content reaches 95% of the sound enamel value. The integrated mineral loss (IML), represented as ΔZd, was calculated by trapezoidal integration as the area between the sound-enamel densitometric profile and that of the demineralized enamel densitometric profile in vol % min·μm.
# [7] = tested on: Streptococcus sanguinis (NCTC 7863); experiment: Six species polymicrobial biofilm in constant-depth film fermenter, species composition: S. sanguinis; format: cell-based
# Method: as §1, §4, §5, §6, §3
# [8] = 19 days, mean ± standard deviation, n = 5-21
smiles,measurement,setting,value
"[F][Sn][F] [SnF2, stannous fluoride, reference compound]",S. mutans as a percentage of total bacteria in the biofilm,[1],59.82 ± 4.59^a %
same,V. parvula as a percentage of total bacteria in the biofilm,[2],6.50 ± 1.48^b %
same,L. casei as a percentage of total bacteria in the biofilm,[3],10.67 ± 6.92^cd %
same,increase in calcium in the biofilm relative to the control,polymicrobial biofilm; ICP-MS,two-fold
same,increase in phosphorous in the biofilm relative to the control,polymicrobial biofilm; ICP-MS,two-fold
same,peak stannous concentration in the biofilm,polymicrobial biofilm; ICP-MS,1.0 nmol/mg biofilm wet weight
same,"Sn accumulated in the polymicrobial biofilms, concentration",polymicrobial biofilm; during SnF2 treatment,≤ 119 ppm
same,F. nucleatum as a percentage of total bacteria in the biofilm,[4]; [8],0.02 ± 0.01^cd %
same,change in abundance of F. nucleatum after treatment relative to the control (increase),"[4]; day 19, FIG. 5B",−2%
same,A. naeslundii as a percentage of total bacteria in the biofilm,[5]; [8],5.54 ± 1.74^abc %
same,change in abundance of A. naeslundii relative to the control (in words),"[5]; twice daily treatment, day 19",significantly reduced
same,integrated mineral loss ΔZd,[6]; Day 6,636.7 ± 129.4 vol % min · μm
same,lesion depth LD,[6]; Day 6,17.6 ± 1.2^c μm
same,integrated mineral loss ΔZd,[6]; Day 12,1352.1 ± 147.3^bde vol % min · μm
same,lesion depth LD,[6]; Day 12,37.1 ± 5.3^bdf μm
same,integrated mineral loss ΔZd,[6]; Day 19,2096.3 ± 66.7^ae vol % min · μm
same,lesion depth LD,[6]; Day 19,46.1 ± 4.7^be μm
same,rate of demineralization,[6]; between day 6 and day 19,112.1 vol % min·μm/day
same,reduction in rate of demineralization relative to control,"[6]; between day 6 and day 19, twice daily exposure",50.2% and 50%
same,S. sanguinis as a percentage of total bacteria in the biofilm,[7]; [8],17.47 ± 3.44^a %
same,change in abundance of S. sanguinis relative to the control (in words),"[7]; twice daily treatment, day 19",significantly increased
